Data reported in US8541455B2, “Derivatives of 2-pyridin-2-yl-pyrazol-3(2H)-one, preparation and therapeutic use thereof as HIF activators” (Sanofi, priority 2008, dated 2013).
Counter-ions that a name gives are not always drawn.

| Compound | melting point [°C] |
| --- | --- |
| CCNS(=O)(=O)c1ccc(-n2[nH]c(C)c(Cc3cccnc3)c2=O)nc1 (as salt: HCl) [Compound 89] | 196 |
| Cc1[nH]n(-c2ccc(S(=O)(=O)Nc3ccccc3)cn2)c(=O)c1Cc1cccnc1 (as salt: HCl) [Compound 90] | 154 |
| CCN(c1ccccc1)S(=O)(=O)c1ccc(-n2[nH]c(C)c(CC3CCN(C)CC3)c2=O)nc1 (as salt: HCl) [Compound 94] | 150 |
| Cc1[nH]n(-c2ccc(S(=O)(=O)N(C)C3CC3)cn2)c(=O)c1Cc1cccnc1 (as salt: HCl) [Compound 95] | 138 |
| COc1cncc(Cc2c(C)[nH]n(-c3ccc(S(=O)(=O)NC(C)(C)C)cn3)c2=O)c1 (as salt: HCl) [Compound 96] | 150 |
| CN(C1CCCC1)S(=O)(=O)c1ccc(-n2[nH]cc(Cc3cccnc3)c2=O)nc1 (as salt: HCl) [Compound 117] | 124 |
| CCN(C1CCCC1)S(=O)(=O)c1ccc(-n2[nH]cc(Cc3ccncc3)c2=O)nc1 (as salt: HCl) [Compound 119] | 115 |
| CN(C1CCCC1)S(=O)(=O)c1ccc(-n2[nH]cc(Cc3ccncc3)c2=O)nc1 (as salt: HCl) [Compound 120] | 130 |
| COC(=O)CN(C1CCCC1)S(=O)(=O)c1ccc(-n2[nH]cc(Cc3cccnc3)c2=O)nc1 (as salt: HCl) [Compound 128, methyl N-cyclopentyl-N-({6-[5-oxo-4-(pyridin-3-ylmethyl)-2,5-dihydro-1H-pyrazol-1-yl]pyridin-3-yl}sulfonyl)glycinate hydrochloride] | 110 |
| COC(=O)[C@H]1CCC[C@H]1N(C)S(=O)(=O)c1ccc(-n2[nH]cc(Cc3cccnc3)c2=O)nc1 (as salt: HCl) [Compound 131] | 156 |
| CC(C)(C)CNS(=O)(=O)c1ccc(-n2[nH]cc(Cc3cccnc3)c2=O)nc1 (as salt: HCl) [Compound 136] | 123 |
| CCC(C)(C)NS(=O)(=O)c1ccc(-n2[nH]cc(Cc3cccnc3)c2=O)nc1 (as salt: HCl) [Compound 137] | 126 |
| COc1ccncc1Cc1c[nH]n(-c2ccc(S(=O)(=O)N(C)C3CCCC3)cn2)c1=O (as salt: HCl) [Compound 144] | 40 |

More lines, now with the values ahead:

| melting point [°C] | Compound |
| --- | --- |
| 136 | CCN(c1ccccc1)S(=O)(=O)c1ccc(-n2[nH]cc(Cc3cncc(OC)c3)c2=O)nc1.Cl |
| 180 | CCN(c1ccccc1)S(=O)(=O)c1ccc(-n2[nH]cc(Cc3ccccc3)c2=O)nc1 (as salt: HCl) [Compound 93, 6-(4-benzyl-5-oxo-2,5-dihydro-1H-pyrazol-1-yl)-N-ethyl-N-phenylpyridine-3-sulfonamide] |
| 142 | CCN(c1ccccc1)S(=O)(=O)c1ccc(-n2[nH]cc(Cc3cccnc3)c2=O)nc1 (as salt: HCl) [Compound 99] |
| 110 | CCN(C1CCCC1)S(=O)(=O)c1ccc(-n2[nH]cc(Cc3cccnc3)c2=O)nc1 (as salt: HCl) [Compound 115] |
| 230 | CN(C)CCCN(C1CCCC1)S(=O)(=O)c1ccc(-n2[nH]cc(Cc3ccccc3)c2=O)nc1 (as salt: HCl) [Compound 123, 6-(4-benzyl-5-oxo-2,5-dihydro-1H-pyrazol-1-yl)-N-cyclopentyl-N-[3-(dimethylamino)propyl]pyridine-3-sulfonamide hydrochloride] |
| 130 | CN1CCC(N(C)S(=O)(=O)c2ccc(-n3[nH]cc(Cc4ccccc4)c3=O)nc2)C1 (stereo not drawn) (as salt: HCl) [Compound 139] |
| 194 | COC(C)(C)CNS(=O)(=O)c1ccc(-n2[nH]cc(Cc3ccccc3)c2=O)nc1 (as salt: HCl) [Compound 141] |
| 230 | CN(C)CC(C)(C)NS(=O)(=O)c1ccc(-n2[nH]cc(Cc3ccccc3)c2=O)nc1 (as salt: HCl) [Compound 152] |
